The values below come from patent US10034854B2, “Pharmaceutical composition with improved bioavailability” (Hoffmann-La Roche Inc., priority 2013, dated 2018).

In brackets after ≈: the same amount, converted by molar mass. Where two headings read alike, the source gives them in different places.

A short description of data set [1]: Aqueous solubility of crystalline Compound A at physiological pHs. Format: physicochemical.
The nature of data set [2]: Caco-2 assay (permeability). In kind it is in vitro ADME. Conditions: human. From the text: The permeability of the compound is not high as determined with the Caco-2 assay value of 0.8×10^−6 cm/s. The poor solubility and the targeted high doses/frequency of dosing for this series of compounds led to the categorization of Compound A as BCS class IV compound (poor solubility/poor permeability).
(In general: Caco-2 monolayers are a common model of the intestinal barrier.)

Data set [3] in a line: Pharmacokinetics / bioavailability in monkeys. Conditions: IV, 1.25 mg/kg, fed.
Data set [4] in a line: Solubility in bio-relevant fluids (FaSSIF, FeSSIF). In kind it is physicochemical. As to conditions: thermodynamic from solid, 37° C. How it is done:
Approximately 5 mg of Compound A as MBP was placed in 20 mL of 37° C. bio-relevant fluids (Fasted State Simulated Intestinal Fluid and Fed State Simulated Intestinal Fluid) and was filtered through a 0.2 μm filter over time. The filtrate was then analyzed by HPLC.

Data set [5] in a line: Salt screening: solubility of various salts of Compound A. As to conditions: for solubility: salts of Compound A, at the pH of the same line.
Data set [6] is described as follows: Animal pharmacokinetics study of formulations (FIG. 3). As to conditions: oral formulations.
The mark [7] stands for this setting: pH belonging to the solubility value of the salt.

One may read the solubility as the concentration that dissolves in the medium under given conditions. One may read the Papp as a coefficient for how fast a substance crosses the barrier. A higher Papp goes with fast passage. Compound `COc1cc(C(=O)O)ccc1NC(=O)[C@@H]1N[C@@H](CC(C)(C)C)[C@](C#N)(c2ccc(Cl)cc2F)[C@H]1c1cccc(Cl)c1F` [Compound A, 4-{[(2R,3S,4R,5S)-4-(4-Chloro-2-fluoro-phenyl)-3-(3-chloro-2-fluoro-phenyl)-4-cyano-5-(2,2-dimethyl-propyl)-pyrrolidine-2-carbonyl]-amino}-3-methoxy-benzoic acid] came in with a solubility in data set [1] (aqueous medium, aqueous buffer, crystalline form, physiological pHs (pH 1.5-7.0)) of under 0.05 µg/mL. Besides, the solubility in data set [1] (pH 1.5, aqueous buffer, crystalline forms, in water at physiological pHs (pH1.5-8.0)) was under 0.05 µg/mL. In data set [2], this compound gave a Papp of 0.8 ×10⁻⁶ cm/s. In addition, in data set [3], the “% AUC Extrap” value is on record as 0.7% and the AUC/Dose was found to be 10.3 µg·h/mL/mg/kg.
On to `COc1cc(C(=O)O)ccc1NC(=O)[C@@H]1N[C@@H](CC(C)(C)C)[C@](C#N)(c2ccc(Cl)cc2F)[C@H]1c1cccc(Cl)c1F` [Crystalline Form, 4-{[(2R,3S,4R,5S)-4-(4-Chloro-2-fluoro-phenyl)-3-(3-chloro-2-fluoro-phenyl)-4-cyano-5-(2,2-dimethyl-propyl)-pyrrolidine-2-carbonyl]-amino}-3-methoxy-benzoic acid], for which the solubility in data set [4] (Fasted State Simulated Intestinal Fluid (FaSSIF), FaSSIF) is 2 µg/mL (≈ 3.24 µM); in data set [4] (Fed State Simulated Intestinal Fluid (FeSSIF), FeSSIF) it was 3 µg/mL (≈ 4.87 µM).
Regarding `CNC[C@H](O)[C@@H](O)[C@H](O)[C@H](O)CO` [Meglamine], the “aqueous solubility (in words)” value in data set [5] (among the salts identified in salt screening) is listed as “most improved aqueous solubility”. Moreover, in data set [5] (setting [7]), the pH worked out at 7.8. Besides, the solubility in data set [5] is over 1400 µg/mL. The “bioavailability (exposure) (in words)” value in data set [6] is “not improved”.
Consider `CS(=O)(=O)O` [Methanesulfonic acid (Mesylate)], for which the pH in data set [5] stood at 3.1.
`[K+]` [Potassium]: in data set [5] (setting [7]), the pH amounted to 8.0. Moreover, the solubility in data set [5] amounted to 0.5 µg/mL.
The corresponding values for `Cc1ccc(S(=O)(=O)O)cc1` [p-Toluenesulfonic acid] are 2.7 and under 0.02 µg/mL.
Sodium: the pH in data set [5] (setting [7]) is listed as 7.2. Also, in data set [5], the solubility is 0.7 µg/mL.
